Bridge positions count the residues as written; N and C are the ends. Ends that are not written are not given here.
Tested on: CT26 cells
Test: XTT cell viability / killing activity in CT26 cells
Assay type: cell-based
Details: CT26 cells in vitro, TU:MTDs 0 ~ 20 μM, 30 minutes
Procedure: Figure 1 Identification of TU17:MTD as a tumor targeting peptide (A) Schematic diagram of the fusion peptides consisting of the tumor-homing motif, linker, and mitochondrial targeting domain (MTD). (B) Tumors were generated over 2 weeks after s.c. injection of CT26 cells into the backs of BALB/c mice. When tumor volumes reached palpable size, the indicated TU:MTDs (100 μl of 1 mM TU:MTDs) or PBS were administrated i.v. twice or three times. […] Arrows indicate the points of peptide injection. P values < 0.02 (control group vs TU17:MTD at day 5, 6, 7, 8, and 9) (C) HCT116, HeLa, A549, MCF-7, PC3, and BJAB cells were treated with TU17:MTD (0 ~ 20 μM) for 30 minutes, and cell viability was monitored using XTT assays. *P < 0.05 (D) Primary splenocytes and macrophages were treated with TU17:MTD (0 ~ 20 μM) for 30 minutes, and cell viability was monitored by XTT assay. *P < 0.05 (E) CT26 cells were treated with R8:MTD, TU17:MTD, TU17-2:MTD or TU17:MTD^4A (0 ~ 40 μM) for 4 hours, and cell viability was monitored by XTT assay. Results in C to E are expressed as means ± SD (triplicates), and are representative of at least two independent experiments. P values are for experimental groups versus controls and were calculated using Dunnett's t-test. *P < 0.05.
Figure 5 Anti-NRP-1 antibody blocks TU17:MTD-induced necrosis (A) CT26 cells (2 × 10^4 cells/cm^2) were treated with TU17:MTD-FAM (500 nM) peptide or TU17^mut:MTD (500 nM) peptide. […] The viability was measured by using the XTT assay. *P < 0.05, **P < 0.01. […] The percentage of FAM-positive cells (%) were determined (n = over 200 cells). *P < 0.05, ***P < 0.001.
Cells were cultured in 96 well plates (2 × 10^5) overnight and treated with TU:MTDs. Cell viabilities were assessed using a XTT-based colorimetric assay kit, according to the manufacturer's instructions. […]
Supplementary FigureS1: Killing activity of TU:MTDs in CT26 cells. CT26 cells were treated with TU:MTDs (0 ~ 20 μM) for 30 minutes, and cell viability was monitored using XTT assays. […]

Sequence	morphological features of necrosis
KLLNLISKLFCRGDKRLYDC (disulfide 11-20 (inferred)) [TU11:MTD]	induced the typical morphological features of necrosis
CNGRCVSGCAGRCGGKLLNLISKLF [TU2:MTD, MTD peptide fused with tumor-homing motif, linear]	induced the typical morphological features of necrosis
